Where “and” joins values, the source holds several entries; their conditions need not be identical. Equal values may be shown once.
Legend:
293T cells [1] = experiment: Cell survival rate determination (CCK-8); format: cell-based; conditions: for Cell survival rate (%): LNP formulation containing 1.5 μg Fluc-mRNA, 24 hours, CCK-8, absorbance at 450 nm; for cell survival rate lower than that of YK-101: cell survival rate of YK-101 minus that of named substance; for cell survival rate lower than that of YK-107: cell survival rate of YK-107 minus that of named substance; for cell survival rate lower than that of YK-108: cell survival rate of YK-108 minus that of named substance
In short: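 293T cells were seeded overnight at 10,000 cells/well in 96-well plates, then exposed for 24 h to LNP containing 1.5 μg Fluc-mRNA (cationic:neutral:structural:polymer-conjugated lipid, 49:10:39.5:1.5 molar) or to Lipofectamine 3000. Viability was read by CCK-8, 1 h incubation, absorbance 450 nm.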

[2] = Determination of particle size and polydispersity index (PDI) of lipid nanoparticles by dynamic light scattering; format: physicochemical; conditions: LNP formulation of named cationic lipid/DSPC/cholesterol/DMG-PEG2000 49:10:39.5:1.5; for Particle size (nm): 90° scattering angle, 25° C
Experimental: The cationic lipids listed in Table 1 were dissolved in ethanol with DSPC (AVT (Shanghai) Pharmaceutical Technology Co., Ltd.), cholesterol (AVT (Shanghai) Pharmaceutical Technology Co., Ltd.) and DMG-PEG2000 according to a molar ratio of 49:10:39.5:1.5, respectively, to prepare lipid solution in ethanol. The lipid solution in ethanol was quickly added to citrate buffer (pH=4 to 5) by ethanol injection method, and vortexed for 30 s for later use. eGFP-mRNA (from Shanghai Biohub International Trade Co., Ltd) or Fluc-mRNA (from Shanghai Biohub International Trade Co., Ltd) was diluted in citrate buffer (pH=4 to 5) to give an aqueous mRNA solution. A certain volume of liposome solution and mRNA aqueous solution were used to prepare liposomes at a weight ratio of total lipids to mRNA of 15:1. The mixtures were sonicated at 25° C. for 15 min (with an ultrasonic frequency of 40 kHz and an ultrasonic power of 800 W). The resulting liposomes were diluted to 10 times volume with PBS, and then ultrafiltered with a 300 KDa ultrafiltration tube to remove ethanol. Then the volume was fixed to a certain volume with PBS to give an LNP formulation encapsulating eGFP-mRNA or Fluc-mRNA using cationic lipid/DSPC/cholesterol/DMG-PEG2000 (49:10:39.5:1.5 in molar percentage).
The particle size and polydispersity index (PDI) were determined by dynamic light scattering using Malvern laser particle size analyzer.
10 μL of the liposome solution was weighed, diluted to 1 mL with RNase-free deionized water, and added to the sample pool. Each sample was measured in triplicate. The measurement conditions were: 90° scattering angle, and 25° C.

BALB/C mice = experiment: In vivo imaging of Fluc-mRNA expression in mice delivered by LNP formulations; conditions: for average radiation intensity, 6 h / average radiation intensity, 24 h / average radiation intensity, 48 h / average radiation intensity, 7 d: LNP containing 10 pg Fluc-mRNA, intramuscular, female BALB/C mice; for expression amount of mRNA in mice of YK-101, times that of named substance / expression amount of mRNA in mice of YK-107, times that of named substance: highest multiple, time point not stated
In short: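 Female BALB/C mice (4-6 weeks, 17-19 g) received LNP carrying […] Fluc-mRNA intramuscularly. Substrate was given intraperitoneally at 6 h, 24 h, 48 h and 7 d, and average radiance was imaged by IVIS 5 min later.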

293T cells [3] = experiment: Fluorescent detection of Fluc-mRNA (cell transfection efficiency of LNP formulations); format: cell-based; conditions: for Relative light unit (RLU): LNP formulation containing 0.3 μg Fluc-mRNA, 96-well plate, 24 hours; for Multiples (YK-101): RLU of YK-101 / RLU of named substance; for Multiples (YK-107): RLU of YK-107 / RLU of named substance; for Multiples (YK-108): RLU of YK-108 / RLU of named substance; for Ratio relative to SM-102: RLU of named substance / RLU of SM-102; for difference from SM-102 in Fluc-mRNA fluorescence (GraphPad Prism analysis): statistical comparison with SM-102
In short: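 293T cells seeded at 10,000 per well, cultured overnight, then given LNP carrying 0.3 μg Fluc-mRNA (cationic:neutral:structured:PEG-lipid 49:10:39.5:1.5 molar). Incubated 24 h. Luciferase signal read with kit reagent on an IVIS imaging system.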

Row | Compound | Cell survival rate (%) (293T cells [1]) | cell survival rate lower than that of YK-101 (293T cells [1]) | cell survival rate lower than that of YK-107 (293T cells [1]) | cell survival rate lower than that of YK-108 (293T cells [1]) | PDI(%) [2] [%] | Particle size (nm) [2] [nm] | average radiation intensity of YK-101, times that of named substance (BALB/C mice; 6 h) [times] | average radiation intensity of YK-107, times that of named substance (BALB/C mice; 6 h) [times] | average radiation intensity of YK-108, times that of named substance (BALB/C mice; 6 h) [times] | average radiation intensity of YK-101, times that of named substance (BALB/C mice; 24 h) [times] | average radiation intensity of YK-107, times that of named substance (BALB/C mice; 24 h) [times] | average radiation intensity of YK-108, times that of named substance (BALB/C mice; 24 h) [times] | average radiation intensity of YK-101, times that of named substance (BALB/C mice; 48 h) [times] | average radiation intensity of YK-107, times that of named substance (BALB/C mice; 48 h) [times] | average radiation intensity of YK-108, times that of named substance (BALB/C mice; 48 h) [times] | average radiation intensity of YK-101, times that of named substance (BALB/C mice; 7 d) [times] | average radiation intensity of YK-107, times that of named substance (BALB/C mice; 7 d) [times] | average radiation intensity of YK-108, times that of named substance (BALB/C mice; 7 d) [times] | average radiation intensity, 6 h (BALB/C mice; 6 h) | average radiation intensity, 24 h (BALB/C mice; 24 h) | other results
1 | CCCCCCCCCCOC(=O)CCCN(CCCCCC(=O)OCC(CCCCCCCC)CCCCCCCC)CCOC(=O)CCCN(C)C [YK-126] | 25.03 | 60% and 65.09% | 60% and 65.42% | 60% and 64.83% | 15.1 | 260 | 9.6 | 10.3 | 13.0 | 50.4 | 62.2 | 67.1 | 27.9 | 34.0 | 34.6 | 13.9 | 15.2 | 16.2 | 155160 | 20939 | cell survival rate lower than that of YK-122 (293T cells [1]): 54.12%; cell survival rate lower than that of YK-124 (293T cells [1]): 52.53%; average radiation intensity, 48 h (BALB/C mice; 48 h): 6656; average radiation intensity, 7 d (BALB/C mice; 7 d): 877; expression amount of mRNA in mice of YK-101, times that of named substance (BALB/C mice): 50 times; expression amount of mRNA in mice of YK-107, times that of named substance (BALB/C mice): 62 times; cell transfection activity, times that of YK-125 (293T cells [3]): 1.3 times; Relative light unit (RLU) (293T cells [3]): 219983 RLU; Multiples (YK-101) (293T cells [3]): 92.44; Multiples (YK-107) (293T cells [3]): 101.65; Multiples (YK-108) (293T cells [3]): 112.10; fluorescence absorption value, times that of HHMA (293T cells [3]; RLU of named substance / RLU of HHMA): 0.11 times; fluorescence absorption value, times that of Lipofectamine 3000 (293T cells [3]; RLU of named substance / RLU of Lipofectamine 3000): 0.20 times; Ratio relative to SM-102 (293T cells [3]): 0.14; Fluc-mRNA expression signal intensity, times that of compound 21 (293T cells [3]; RLU of named substance / RLU of compound 21): 0.16 times; fluorescence absorption value, times that of compound 23 (293T cells [3]; RLU of named substance / RLU of compound 23): 0.17 times; difference from SM-102 in Fluc-mRNA fluorescence (GraphPad Prism analysis) (293T cells [3]): significant difference
2 | CCCCCCCCCC(=O)OCCCCN(CCO)CCCCCC(=O)OCCC(CCCCCC)CCCCCC [YK-109] | 69.45 | 20.67% | 21.00% | 20.41% | 28.2 | 205 | 2.4 | 2.6 | 3.2 | 11.2 | 13.8 | 14.8 | 10.1 | 12.2 | 12.5 | 2.5 | 2.7 | 2.9 | 625040 | 94720 | average radiation intensity, 48 h (BALB/C mice; 48 h): 18496; average radiation intensity, 7 d (BALB/C mice; 7 d): 4948; expression amount of mRNA in mice of YK-101, times that of named substance (BALB/C mice): up to 11 times; expression amount of mRNA in mice of YK-107, times that of named substance (BALB/C mice): ≤ 13 times; Relative light unit (RLU) (293T cells [3]): 717431 RLU; Ratio relative to SM-102 (293T cells [3]): 0.47; difference from SM-102 in Fluc-mRNA fluorescence (GraphPad Prism analysis) (293T cells [3]): no significant difference
3 | CCCCCCCCC(CCCCCCCC)OC(=O)CCCCCCCN(CCO)CCCCCCCC(=O)OCCC(CCCCCC)CCCCCC [Compound 21, 9-heptadecyl 8-(8-((3-hexylnonyl)oxy)-8-oxoctyl)-((2-hydroxyethyl)amino)octoate, reference compound] | 68.53 | 21.59% | 21.92% | 21.33% | 12.5 | 151 | 2.5 | 2.6 | 3.3 | 9.6 | 11.8 | 12.8 | 6.0 | 7.3 | 7.4 | 2.0 | 2.2 | 2.4 | 606680 | 110210 | average radiation intensity, 48 h (BALB/C mice; 48 h): 31062; average radiation intensity, 7 d (BALB/C mice; 7 d): 6024; Relative light unit (RLU) (293T cells [3]): 1389141 RLU; Multiples (YK-101) (293T cells [3]): 14.64; Multiples (YK-107) (293T cells [3]): 16.10; Multiples (YK-108) (293T cells [3]): 17.75; Ratio relative to SM-102 (293T cells [3]): 0.91
4 | CCCCCCCCC(CCCCCC)C(=O)OCCCCCCN(CCCCO)CCCCCCOC(=O)C(CCCCCC)CCCCCCCC (stereo not shown) [ALC-0315, reference compound] | 51.02 | 39.10% | 39.43% | 38.84% | 15.0 | 209 | 1.8 | 1.9 | 2.4 | 5.9 | 7.2 | 7.8 | 4.8 | 5.8 | 5.9 | 1.8 | 2.0 | 2.1 | 830590 | 179680 | average radiation intensity, 48 h (BALB/C mice; 48 h): 39015; average radiation intensity, 7 d (BALB/C mice; 7 d): 6643; Relative light unit (RLU) (293T cells [3]): 2056890 RLU; Multiples (YK-101) (293T cells [3]): 9.89; Multiples (YK-107) (293T cells [3]): 10.87; Multiples (YK-108) (293T cells [3]): 11.99; Ratio relative to SM-102 (293T cells [3]): 1.34
